Measured values: patent publication US20200339651A1, “METHODS FOR B CELL PRECONDITIONING IN CAR THERAPY” (Novartis AG, priority 2014, published 2020)

Legend:
huCART19 cells = assay: CART proliferation in 4 day co-culture with Nalm-6 cells in the presence of RAD001; format: cell-based, human
Source text: A humanized, anti-human CD19 CAR (huCART19) lentiviral transfer vector was used to produce the genomic material packaged into VSVg pseudotyped lentiviral particles. The amino acid and nucleotide sequence of the humanized anti-human CD19 CAR (huCART19) is CAR 1, ID 104875 described in PCT publication, WO2014/153270, filed Mar. 15, 2014, and is designated SEQ ID NOs. 85 and 31 therein.
Lentiviral transfer vector DNA is mixed with the three packaging components VSVg env, gag/pol and rev in combination with lipofectamine reagent to transfect Lenti-X 293T cells. Medium is changed after 24 h and 30 h thereafter, the virus-containing media is collected, filtered and stored at −80° C. CARTs are generated by transduction of fresh or frozen naïve T cells obtained by negative magnetic selection of healthy donor blood or leukopak. T cells are activated by incubation with anti-CD3/anti-CD28 beads for 24 h, after which viral supernatant or concentrated virus (MOI=2 or 10, respectively) is added to the cultures. The modified T cells are allowed to expand for about 10 days. The percentage of cells transduced (expressing the CARs on the cell surface) and the level of CAR expression (relative fluorescence intensity, Geo Mean) are determined by flow cytometric analysis between days 7 and 9. The combination of slowing growth rate and T cell size approaching ˜350 fL determines the state for T cells to be cryopreserved for later analysis.
To evaluate the functionality of CARTs, the T cells are thawed and counted, and viability is assessed by Cellometer. The number of CAR-positive cells in each culture is normalized using non-transduced T cells (UTD). The impact of RAD001 on CARTs was tested in titrations with RAD001, starting at 50 nM. The target cell line used in all co-culture experiments is Nalm-6, a human pre-B cell acute lymphoblastic leukemia (ALL) cell line expressing CD19 and transduced to express luciferase.
For measuring the proliferation of CARTs, T cells are cultured with target cells at a ratio of 1:1. […] The number of T cells is assessed by flow cytometry using counting beads as reference.

NALM6-luc tumors = assay: NALM6-luc tumor growth in NSG mice with daily RAD001 dosing; format: in vivo; conditions: daily oral dosing of RAD001 alone at 0.3, 1, 3, and 10 mg/kg
Experimental: FIG. 8 depicts tumor growth measurements of NALM6-luc cells with daily RAD001 dosing at 0.3, 1, 3, and 10 mg/kg (mpk) or vehicle dosing. Circles denote the vehicle; squares denote the 10 mg/kg dose of RAD001; triangles denote the 3 mg/kg dose of RAD001, inverted triangles denote the 1 mg/kg dose of RAD001; and diamonds denote the 0.3 mg/kg dose of RAD001.
The NALM6 human acute lymphoblastic leukemia (ALL) cell line was developed from the peripheral blood of a patient with relapsed ALL. The cells were then tagged with firefly luciferase. These suspension cells grow in RPMI supplemented with 10% heat inactivated fetal bovine serum.
6 week old NSG (NOD.Cg-Prkdc^scidIl2rg^tm1Wjl/SzJ) mice were received from the Jackson Laboratory (stock number 005557).
NALM6-luc cells were grown and expanded in vitro in RPMI supplemented with 10% heat inactivated fetal bovine serum. The cells were then transferred to a 15 ml conical tube and washed twice with cold sterile PBS. NALM6-luc cells were then counted and resuspended at a concentration of 10×10^6 cells per milliliter of PBS. The cells were placed on ice and immediately (within one hour) implanted in the mice. NALM6-luc cells were injected intravenously via the tail vein in a 100 μl volume, for a total of 1×10^6 cells per mouse. […]

[1] = Pharmacokinetics of RAD001 in the blood of NSG mice with NALM6 tumors; format: in vivo
Experimental: Diamonds denote the […] dose of RAD001; squares denote the 1 mg/kg dose of RAD001; triangles denote the 3 mg/kg dose of RAD001; and x's denote the 10 mg/kg dose of RAD001.
(§1) A concentrated micro-emulsion of 50 mg equal to 1 mg RAD001 was formulated and then resuspended in D5W (dextrose 5% in water) at the time of dosing. Mice were orally dosed daily (via oral gavage) with 200 μl of the desired doses of RAD001.
Mice were dosed daily with RAD001 starting 7 days post tumor implantation. Dosing groups were as follows: 0.3 mg/kg, 1 mg/kg, 3 mg/kg, and 10 mg/kg. Mice were bled on days 0 and 14 following the first and last dose of RAD001, at the following time points for PK analysis: 15 minutes, 30 minutes, 1 hour, 2 hours, 4 hours, 8 hours, 12 hours, and 24 hours.

huCAR19 CAR T cells = assay: In vivo proliferation of humanized CD19 CART cells with and without RAD001 dosing; design: species or system NSG mice
Experimental: Circles denote PBS; squares denote huCTL019; triangles denote huCTL019 with 3 mg/kg RAD001; inverted triangles denote huCTL019 with 0.3 mg/kg RAD001; diamonds denote huCTL019 with 0.03 mg/kg RAD001; and circles denote huCTL019 with 0.003 mg/kg RAD001.
Mice were administered 5×10^6 CAR T cells 7 days after tumor implantation. Cells were partially thawed in a 37 degree Celsius water bath and then completely thawed by the addition of 1 ml of cold sterile PBS to the tube containing the cells. The thawed cells were transferred to a 15 ml falcon tube and adjusted to a final volume of 10 mls with PBS. The cells were washed twice at 1000 rpm for 10 minutes each time and then counted on a hemocytometer. T cells were then resuspended at a concentration of 50×10^6 CAR T cells per ml of cold PBS and kept on ice until the mice were dosed. The mice were injected intravenously via the tail vein with 100 μl of the CAR T cells for a dose of 5×10^6 CAR T cells per mouse. Eight mice per group were treated either with 100 μl of PBS alone (PBS), or humanized CD19 CAR T cells.
as §1
Based on these doses, huCAR19 CAR T cells were dosed with and without RAD001 to determine the proliferative ability of these cells. The highest dose used was 3 mg/kg based on the levels of RAD001 in the blood 24 hours after dosing. As the concentration of RAD001 was above 10 nM 24 hours after the final dose of RAD001, several lower doses of RAD001 were used in the in vivo study with CAR T cells. The CAR T cells were dosed IV one day prior to the start of the daily oral RAD001 dosing. Mice were monitored via FACS for T cell expansion.

concentration of RAD001 ([1]; 24 hours after the final dose of RAD001): above 10 nM | concentration at 24 h ([1]; NSG, mouse, whole blood, day 0, 24 hours after dosing, lowest dose tested (0.3 mg/kg), oral): > 10 nM | RAD001 concentration in the blood ([1]; day 14, 24 hours after dosing, lowest dose tested (0.3 mg/kg), oral): above 10 nm | stability in the blood ([1]; tumor bearing mice): fairly stable
SMILES: CO[C@H]1C[C@@H]2CC[C@@H](C)[C@@](O)(O2)C(=O)C(=O)N2CCCC[C@H]2C(=O)O[C@H]([C@H](C)C[C@@H]2CC[C@@H](OCCO)[C@H](OC)C2)CC(=O)[C@H](C)/C=C(\C)[C@@H](O)[C@@H](OC)C(=O)[C@H](C)C[C@H](C)/C=C/C=C/C=C/1C [RAD001, (1R,9S,12S,15R,16E,18R,19R,21R,23S,24E,26E,28E,30S,32S,35R)-1,18-dihydroxy-12-{(1R)-2-[(1S,3R,4R)-4-(2-hydroxyethoxy)-3-methoxycyclohexyl]-1-methylethyl}-19,30-dimethoxy-15,17,21,23,29,35-hexamethyl-11,36-dioxa-4-aza-tricyclo[30.3.1.04,9]hexatriaconta-16,24,26,28-tetraene-2,3,10,14,20-pentaone]
proliferation of huCART19 cells compared with no RAD001 (huCART19 cells; 0.0032 and 0.016 nM RAD001, 4 day co-culture with Nalm-6): proliferation was higher than observed without the addition of RAD001 | expansion of huCART19 cells (huCART19 cells; less than 0.016 nM of RAD001, 4 day co-culture with Nalm-6, 1:1): expanded | proliferation of CAR-expressing, transduced T cells (huCART19 cells; low doses of RAD001, cell culture system): enhanced | growth of NALM6-luc tumors (NALM6-luc tumors): did not have an impact | CAR T cell proliferation in vivo (huCAR19 CAR T cells; RAD001 0.003 mg/kg daily, huCTL019): enhancement in CAR T cell proliferation, above the normal level of huCAR19 proliferation | enhanced proliferation of CD4+ CAR T cells compared with CD8+ CAR T cells (huCAR19 CAR T cells; lowest doses of RAD001): more evident and prolonged | proliferation of CD8+ CAR T cells (huCAR19 CAR T cells; lowest doses of RAD001): enhanced proliferation can be seen at early time points | proliferation of the CAR T cells in vivo (huCAR19 CAR T cells; lowest doses of RAD001, daily oral): enhanced proliferation
